What was measured:
[1] = Acute toxicity test of N-acetylneuraminic acid, mice (Example 6); parameters: species or system ICR mice; conditions: mouse, in vivo
Description: (§1) A test was conducted to examine the acute toxicity of N-acetylneuraminic acid, using mice and rats, by means of intravenous injection, subcutaneous injection, per os inhalation.
(§2) 13 to 15% (W/V) dissolved in distilled water
(§3) By Litchfield-Wilcoxon method.

[2] = test system: sputum of patients with chronic obstructive lung disease on frog palatine mucosa; experiment: Mucociliary transport rate (MTR) of treated sputum on frog palatine mucosa (Example 5); parameters: species or system human sputum; frog palatine mucosa; conditions: for MTR after treatment: 2 mg
Description: (§4) Mucociliary transport rate (hereinunder referred to as MTR), i.e. the rate of transport of sputum by cilia, was measured using frog palatine mucosa. At the same time, physicochemical properties of the sputum before and after application of N-acetylneuraminic acid were compared.
(§5) The sputum used as the specimens was collected from 12 samples of patients suffering from chronic obstructive lung disease. N-acetylneuraminic acid was added to the specimen sputum in the ratios of 5 mg/ml sputum and 1 mg/ml sputum, and the specimen was left for 1 hour at 4° C. before measurement. Sputum which has not been treated by N-acetylneuraminic acid was used as a comparison example. A palatine mucosa obtained from a decapitated frog head was kept at constant temperature and humidity until the mucus liquid of the frog itself depleted. The specimen sputum was placed on the dried palatine mucosa, and the speed of movement of the sputum was observed through a noumenal microscope, thus measuring the MTR. The pH value of the sputum was measured by means of an electronic model HM-SAp pH meter, while the spinnability was measured by a device developed by Nagaoka and Yamanaka (disclosed in Transactions of 2nd Symposium of Cough and sputum, published July 20, 1979). The yield value was measured by Dulfano's double-tube method which is shown in the American Review of Respiratory Diseases, Vol. 104, p88, 1971.

[3] = test system: ciliated cells from human airway and frog palate; experiment: Rotation of ciliated cell groups (Example 4); format: cell-based
Source text: Using ciliated cells from human airway and frog palate, rotation of cell groups due to ciliary beat was observed before and after application of N-acetylneuraminic acid and calcium salt of N-acetylneuraminic acid, in order to confirm the effect of these agents on the cilitated cells.
Human ciliated cells were collected from a normal trachea by means of a branchoscope, the ciliated cells being separated by rubbing the bronchus while observing through the branchoscope, while the collection of frog cilitated cells was conducted by rubbing the palatine mucosta, without being specially careful. […] The groups of cells were transferred to a cover slip and one drop of chicken plasma (prepared by Difco Company) and one drop of 50% chicken embryo extract were added to the cells, thus forming clots. The rotary motion in the clots was recorded by means of a video recorder and the number of rotations per minute was measured.

rats = experiment: Acute toxicity test of N-acetylneuraminic acid, rats (Example 6); format: in vivo, SD rats; conditions: inhalation, 1hr exposure to mist
Description: as §1
(§6) SD rats: 6 weeks old (7 weeks old in case of inhalation)
as §2, §3
(§7) Inhalation was conducted by 1hr exposure to mist.

[4] = as above; format: in vivo, SD rats; conditions: rat, in vivo
Description: as §1, §6, §2, §3, §7

palatine mucosa of frog = experiment: Ciliary movement of frog palatine mucosa, particle transport method (Example 3, Tables 1-3); format: cell-based, bull frog
Description: Bull frogs (furnished by Saitama Test Animal) weighing 300 to 450 g were used regardless of sex.
N-acetylneuraminic acid and calcium salt of N-acetylneuraminic acid (provided by Kanto Ishiseiyaku Kabushiki Kaisha), as well as acetylcholine chloride (furnished by Sigma Kabushiki Kaisha) were used as the test substances.
Mucociliary transport was measured by the particle transport method. After decapitation of a frog, the surface of the palatine mucosa was separated with minimized damage and of fixed to a cork plate in a Petri dish which was then filled with 20 ml of Ringer's solution (trishydrochloric acid). The palatine mucosa was left in this state for 30 minutes before the commencement of measurement. For measurement, the Ringer's solution was removed and fine pieces of cork (capable of passing pharmaceutical sieve No. 5 but not capable of passing No. 6) were placed on the surface of the palatine mucosa, and the time (in seconds) required for the cork piece to move 1 cm was measured. The duration of movement, i.e., moving speed, was measured also in the state immediately after the removal of the Ringer's solution or pharmaceutical solution.

[5] = Physicochemical properties (pH, yield value, spinnability) of treated sputum (Example 5); parameters: species or system human; conditions: for Yield value after treatment / pH of sputum after treatment / Spinnability after treatment: 2 mg
Description: as §4, §5

[6] = sample 5 (viscous sputum, 2 ml), before 18

CC(=O)N[C@H]1[C@H]([C@H](O)[C@H](O)CO)OC(O)(C(=O)O)C[C@@H]1O (stereo partly shown) [N-acetylneuraminic acid]
LD50 at 336 h ([1]; iv, mice F, 95% 2137-2925): 2500 mg/kg | LD50 at 336 h ([1]; iv, mice M, 95% 1441-2008): 1700 mg/kg | LD50 at 336 h ([1]; po, per os, mice F): > 5000 mg/kg | LD50 at 336 h ([1]; po, per os, mice M): > 5000 mg/kg | LD50 at 336 h ([1]; sc, subcutaneous, mice F): > 5000 mg/kg | LD50 at 336 h ([1]; sc, subcutaneous, mice M): > 5000 mg/kg | Change of MTR of sputum ([2]; 1 mg/ml, samples with reduced spinnability): tendency to increased MTR | MTR after treatment ([2]; sample 1 (viscous sputum, 2 ml), before 19): 38 mm/min | MTR after treatment ([2]; sample 2 (viscous sputum, 2 ml), before 8): 19 mm/min | MTR after treatment ([2]; sample 3 (pus sputum, 2 ml), before 20): 27 mm/min | MTR after treatment ([2]; sample 4 (viscous sputum, 2 ml), before 25): 29 mm/min | MTR after treatment [2, 6]: 30 mm/min | MTR after treatment ([2]; sample 6 (viscous sputum, 2 ml), before 15): 18 mm/min | Increase of rotation speed (revolutions per minute) over Medium 199 at plateau ([3]; 10^-3 to 10^-2 mg/ml, 5, 10 and 15 minutes after application): about 25% | Effect on rotary motion of the cilium cells ([3]; 10^-4 to 10^-1 mg/ml): gradually accelerated starting immediately after the application | LD50 (rats; rats F): > 4.33 g/m^3 | LD50 (rats; rats M): > 4.33 g/m^3 | LD50 at 336 h ([4]; iv, rats F, 95% 1741-2030): 1880 mg/kg | LD50 at 336 h ([4]; iv, rats M, 95% 1748-2001): 1870 mg/kg | LD50 at 336 h ([4]; po, per os, rats F): > 5000 mg/kg | LD50 at 336 h ([4]; po, per os, rats M): > 5000 mg/kg | LD50 at 336 h ([4]; sc, subcutaneous, rats F): > 5000 mg/kg | LD50 at 336 h ([4]; sc, subcutaneous, rats M): > 5000 mg/kg | Movement (palatine mucosa of frog; 10^-4 g/ml, frog number 1): 17.3 s/cm | Movement (palatine mucosa of frog; 10^-4 g/ml, frog number 2): 22.0 s/cm | Movement (palatine mucosa of frog; 10^-4 g/ml, frog number 3): 20.7 s/cm | Movement (palatine mucosa of frog; 10^-4 g/ml, frog number 4): 22.0 s/cm | Movement (palatine mucosa of frog; 10^-5 g/ml, frog number 1): 21.3 s/cm | Acceleration (palatine mucosa of frog; 10^-5 g/ml, frog number 1, control = 0): 33.4% | Movement (palatine mucosa of frog; 10^-5 g/ml, frog number 2): 27.3 s/cm | Acceleration (palatine mucosa of frog; 10^-5 g/ml, frog number 2, control = 0): 16.5% | Movement (palatine mucosa of frog; 10^-5 g/ml, frog number 3): 28.7 s/cm | Acceleration (palatine mucosa of frog; 10^-5 g/ml, frog number 3, control = 0): 28.2% | Movement (palatine mucosa of frog; 10^-5 g/ml, frog number 4): 24.7 s/cm | activation at 10 µg/mL (palatine mucosa of frog; 10^-5 g/ml, frog number 4, control = 0, read-out: Acceleration): 31.4% | Effect on ciliary movement of palatine mucosa (palatine mucosa of frog; Tables 1 and 3): acceleration of the ciliary movement of palatine mucosa in a certain dose-dependency | Ciliary movement promoting effect compared with acetylcholine (palatine mucosa of frog; acetylcholine control at 10^-5 and 10^-4): substantially the same ciliary movement promoting effect as the acetylcholine | Change of spinnability of sputum ([5]; 1 mg/ml): five samples showed a reduction, while one sample showed a slight increase | Change of yield value of sputum ([5]; 1 mg/ml): Increase in the yield value was observed in three samples, while three samples showed a reduction. The yield value was unchanged in the remaining one sample | Change of sputum pH value ([5]; 1 mg/ml, six samples): five out of six samples treated with 1 mg/ml of N-acetylneuraminic acid showed a reduction in pH value (pH 7.31 0.40), while the remaining one sample showed a slight increase in pH value | Yield value after treatment ([5]; sample 1 (viscous sputum, 2 ml), before 3.7): 11.5 mmH2 O | pH of sputum after treatment ([5]; sample 1 (viscous sputum, 2 ml), before 7.72): 7.35 | Spinnability after treatment ([5]; sample 1 (viscous sputum, 2 ml), before 55): 19 mm | Yield value after treatment ([5]; sample 2 (viscous sputum, 2 ml), before 0.1): 0.1 mmH2 O | pH of sputum after treatment ([5]; sample 2 (viscous sputum, 2 ml), before 7.52): 7.62 | Spinnability after treatment ([5]; sample 2 (viscous sputum, 2 ml), before 10): 3 mm | Yield value after treatment ([5]; sample 3 (pus sputum, 2 ml), before 2.7): 0.7 mmH2 O | Spinnability after treatment ([5]; sample 3 (pus sputum, 2 ml), before 5): 2 mm | pH of sputum after treatment ([5]; sample 3 (pus sputum, 2 ml), before 7.98): 7.20 | Yield value after treatment ([5]; sample 4 (viscous sputum, 2 ml), before 1.9): 3.2 mmH2 O | pH of sputum after treatment ([5]; sample 4 (viscous sputum, 2 ml), before 6.98): 6.84 | Spinnability after treatment ([5]; sample 4 (viscous sputum, 2 ml), before 22): 12 mm | Yield value after treatment ([5]; sample 5 (viscous sputum, 2 ml), before 2.2): 3.1 mmH2 O | pH of sputum after treatment ([5]; sample 5 (viscous sputum, 2 ml), before 7.24): 6.94 | Spinnability after treatment [5, 6]: 16 mm | pH of sputum after treatment ([5]; sample 6 (viscous sputum, 2 ml), before 8.16): 7.88 | Yield value after treatment ([5]; sample 6 (viscous sputum, 2 ml), before 14.3): 7.5 mmH2 O | Spinnability after treatment ([5]; sample 6 (viscous sputum, 2 ml), before 22): 26 mm

— patent US4698332A, “Expectorant” (Mect Corporation, priority 1984, dated 1987)
